Measurements: publication PMC10901892 (Scientific Reports, 2024)
“Also recorded” adds a separate entry of the source.

Tests used:
[1] = test system: isolated mouse liver mitochondria; type: biochemical; conditions: for EC50: read-out: EC50 of uncoupling activity
[2] = Stability in aqueous 100 mM KPO4 buffer with or without GSH
mice on high fat diet = conditions: mouse, in vivo, ip, 3 mg/kg
mice = experiment: NMY1009 in vivo toxicity study; conditions: i.p. daily, 1 to 100 mg/kg, seven days
Procedure: (§1) Figure 2 Determination of NMY1009 toxicity and plasma and tissue concentrations. (A) 7 treatment groups and 1 vehicle group (four mice per each group) were subjected to 7 daily administrations of the drug i.p. and well-being checks were carried out at 6 and 24 h after each treatment. No deaths or adverse reactions at any of the used NMY1009 doses were observed. (B, C) Tissue and plasma kinetics of NMY1009. Mice were injected with 5 mg/kg NMY1009 i.p. NMY1009 concentrations were measured by LC/MS.
7 treatment groups and 1 vehicle group (four mice per each group) were subjected to 7 daily administrations of the drug i.p. NMY1009 was dissolved in 100% DMSO and the injection volume was 30 μl. Well-being checks were carried out at 6 and 24 h after each treatment. The in vivo toxicity study was carried out by Altogen Labs (Austin, TX).

[3] = In vitro metabolic stability with rat liver microsomes
[4] = NMY1009 plasma and tissue concentrations over time by LC/MS; type: in vivo; conditions: mice, 5 mg/kg i.p.
Procedure: as §1
To characterize the in vivo pharmacokinetics properties of NMY1009, we measured plasma and tissue concentrations over time after an i.p. injection of 5 mg/kg NMY1009. […] The kinetics of the tissue drug concentrations were similar compared to plasma. The observed decline in the adipose tissue concentrations may be due to drug metabolism or renal excretion. The latter possibility appears less likely as the drug concentration in the kidney was very low. […] However, the adipose tissue drug concentrations decreased over time with a half-life of approximately 3 h.
50 mg of tissue were extracted into 1000 μl of acetonitrile. The entire supernatant was dried and reconstituted into 200 μl of 1:1 acetonitrile/water.

[5] = molecular target: T1, mitochondrial electron transport chain (complex II) (Mus musculus, UniProt Q8K2B3+Q9CQA3+Q9CXV1+Q9CZB0); type: biochemical
T1 construct: Mouse liver mitochondria were isolated by homogenization and differential centrifugation; from tissue; host or cells: liver of male C57BL/6JINV (Jax) mice; isolated mitochondria, intact or disrupted by a freeze-thaw cycle

[6] = in vivo, 5 mg/kg
rats = conditions: cited from earlier work
[7] = aqueous buffer, ESI mass spectrometry
[8] = aqueous solution without GSH, 37 °C

T1 sequence (Q8K2B3 43-664): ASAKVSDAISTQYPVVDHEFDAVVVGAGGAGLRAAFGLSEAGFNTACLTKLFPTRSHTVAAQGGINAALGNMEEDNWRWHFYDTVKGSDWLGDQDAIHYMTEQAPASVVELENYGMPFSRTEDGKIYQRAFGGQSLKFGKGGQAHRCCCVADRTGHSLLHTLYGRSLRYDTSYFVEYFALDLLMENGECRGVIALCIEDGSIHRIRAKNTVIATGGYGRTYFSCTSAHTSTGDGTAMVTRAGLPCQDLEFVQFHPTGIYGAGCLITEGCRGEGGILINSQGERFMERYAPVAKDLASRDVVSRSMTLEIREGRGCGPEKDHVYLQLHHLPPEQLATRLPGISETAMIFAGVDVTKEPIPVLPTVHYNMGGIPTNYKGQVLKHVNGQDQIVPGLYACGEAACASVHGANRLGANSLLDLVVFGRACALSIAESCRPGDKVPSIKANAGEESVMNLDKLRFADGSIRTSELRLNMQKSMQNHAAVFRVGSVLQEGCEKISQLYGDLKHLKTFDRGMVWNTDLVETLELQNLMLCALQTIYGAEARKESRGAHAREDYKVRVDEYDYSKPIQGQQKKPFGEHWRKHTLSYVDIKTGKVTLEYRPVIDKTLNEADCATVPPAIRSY
T1 sequence (Q9CQA3 31-282): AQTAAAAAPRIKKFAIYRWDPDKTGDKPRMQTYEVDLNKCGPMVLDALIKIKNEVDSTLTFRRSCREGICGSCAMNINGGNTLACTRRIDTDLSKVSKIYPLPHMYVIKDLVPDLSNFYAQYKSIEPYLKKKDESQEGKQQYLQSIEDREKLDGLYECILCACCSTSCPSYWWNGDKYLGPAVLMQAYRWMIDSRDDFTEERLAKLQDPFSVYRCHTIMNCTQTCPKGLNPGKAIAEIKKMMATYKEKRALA
T1 sequence (Q9CZB0 30-169): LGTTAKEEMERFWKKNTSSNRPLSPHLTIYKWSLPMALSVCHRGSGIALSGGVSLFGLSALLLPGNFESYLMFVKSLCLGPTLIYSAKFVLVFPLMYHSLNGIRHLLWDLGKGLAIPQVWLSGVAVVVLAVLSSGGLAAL
T1 sequence (Q9CXV1 57-159): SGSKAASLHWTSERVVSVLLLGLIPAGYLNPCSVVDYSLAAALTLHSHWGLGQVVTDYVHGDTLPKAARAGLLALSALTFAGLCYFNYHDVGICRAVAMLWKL

CCCCOc1ccc(NN=C(C#N)C#N)cc1 [C4-CCP]
EC50 [1]: ~100 nM

COc1ccc(NN=C(C#N)C#N)cc1 [C1-CCP]
uncoupling activity (in words) [1]: lower uncoupling activity compared to C4-CCP and C8-CCP

CCCCCCCCCCCCOc1ccc(NN=C(C#N)C#N)cc1 [C12-CCP]
uncoupling activity (in words) [1]: no activity; also recorded: low uncoupling activity

CCCCCCCCOc1ccc(NN=C(C#N)C#N)cc1 [NMY1009, (4-octyloxy-phenyl)carbonhydrazonoyl dicyanide]
incubation time at which the dealkylated metabolite (loss of the octyl group) was observed [2, 7]: 30 min
time after which one third of the drug was turned over [2, 8]: approximately 1 h
time after which two thirds of the drug were turned over [2, 8]: 6 h
drug remaining at the end of the 24 h incubation ([2]; aqueous solution without GSH, 37 °C, 10 μM): about 18%
Glucose Tolerance Test response vs vehicle (mice on high fat diet): no altered Glucose Tolerance Test response
blood glucose concentrations and other blood markers of metabolic health vs vehicle (mice on high fat diet): no significant differences in blood glucose concentrations and other blood markers of metabolic health
body composition (body weight and fat mass gains) vs vehicle (mice on high fat diet): no changes in the body composition
respiratory exchange ratio and energy expenditure vs vehicle (mice on high fat diet): no differences the respiratory exchange ratio and energy expenditure
serum adiponectin concentrations vs vehicle (mice on high fat diet): decrease in serum adiponectin concentrations
deaths or adverse reactions (toxicity) (mice): No deaths or adverse reactions were observed; also recorded: no toxicity
half-life at 1 µM ([3]; rat, microsomes, pH 7.4): ~30 min
tissue distribution (in words) [4]: highest drug tissue concentrations were found in the different types of adipose tissue
half-life ([4]; mouse, adipose tissue, ip, read-out: half-life of adipose tissue drug concentrations (converted)): ~180 min
Tmax ([4]; mouse, plasma, ip, read-out: time of peak plasma concentration (converted)): 30 min
EC50 [1]: ~100 nM

CCCCCCCCOc1cc([N+](=O)[O-])c(O)c([N+](=O)[O-])c1 [2,6-dinitro-4-(octyloxy)phenol]
effect on mitochondrial oxygen consumption at very high concentrations [5]: inhibited mitochondrial oxygen consumption at very high concentrations
effect on oxygen consumption with NADH as substrate [5]: minimal effect
effect on succinate-dependent oxygen consumption after disruption of the inner membrane [5]: inhibited succinate-dependent oxygen consumption
plasma concentration kinetics (in words) ([6]; C57BL/6, mouse): decreased rapidly with much faster kinetics compared to 2,6-dinitrophenol
drug tissue concentration, heart ([6]; mouse): BLQ
drug tissue concentration, kidney ([6]; mouse): BLQ
drug tissue concentration, liver ([6]; mouse): BLQ
health of animals during the study ([6]; mouse): healthy throughout the study duration
tissue concentrations (in words) ([6]; mouse, ip): very low
EC50, fold stimulation of oxygen consumption [1]: 3700 nM

O=[N+]([O-])c1ccc(O)c([N+](=O)[O-])c1 [2,4-dinitrophenol, reference compound]
inhibitory effect on mitochondrial electron transport chain activity [5]: no inhibitory effect
EC50, fold stimulation of oxygen consumption [1]: 9600 nM

N#CC(C#N)=NNc1ccc(OC(F)(F)F)cc1 [FCCP, carbonyl cyanide p-trifluoromethoxy-phenylhydrazone, reference compound]
doses causing adverse effects (rats): ≥ 5 mg/kg
doses causing death (rats): higher than 20 mg/kg
drug turnover in aqueous solution in the absence or presence of 0.2 mM GSH (in words) ([2]; 24 h, 37 °C, 100 mM KPO4): not metabolized significantly
incubation time at which the O-dealkylated metabolite (loss of the trifluoromethyl group) was observed [2, 7]: 24 h
stability upon incubation with rat liver microsomes (in words) ([3]; presence and absence of NADPH, up to 45 min, 37 °C): stable
